The target of assay [1] is T1, FSH receptor (FSHR) (Homo sapiens, UniProt P23945).
T1 sequence (P23945 18-695): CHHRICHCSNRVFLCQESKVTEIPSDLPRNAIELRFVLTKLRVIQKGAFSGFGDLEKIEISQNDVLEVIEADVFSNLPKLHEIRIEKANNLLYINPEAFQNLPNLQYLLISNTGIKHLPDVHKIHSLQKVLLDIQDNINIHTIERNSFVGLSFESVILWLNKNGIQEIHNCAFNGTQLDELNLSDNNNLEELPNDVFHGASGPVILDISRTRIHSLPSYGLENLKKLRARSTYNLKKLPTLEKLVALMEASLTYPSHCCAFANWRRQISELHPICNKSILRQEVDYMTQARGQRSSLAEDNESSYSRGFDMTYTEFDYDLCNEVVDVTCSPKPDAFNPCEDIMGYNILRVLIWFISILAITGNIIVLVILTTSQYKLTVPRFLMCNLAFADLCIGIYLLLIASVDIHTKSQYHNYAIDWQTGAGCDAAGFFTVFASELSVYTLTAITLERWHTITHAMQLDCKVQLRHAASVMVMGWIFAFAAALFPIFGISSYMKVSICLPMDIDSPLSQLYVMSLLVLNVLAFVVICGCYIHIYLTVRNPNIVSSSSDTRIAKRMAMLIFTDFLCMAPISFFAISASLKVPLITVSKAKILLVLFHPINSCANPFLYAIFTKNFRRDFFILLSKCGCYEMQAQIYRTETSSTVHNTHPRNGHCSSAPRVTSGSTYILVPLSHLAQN
To be noted: cited from earlier work.

Assay [2] relates to FSHR signaling. The assay is described as follows: Pathway inhibitors on FSH-induced signalling in SH-SY5Y cells. It is filed as cell-based, human. To be noted: FSH 30 ng/ml 30 minutes; for FSH-induced SRPK2 phosphorylation/activation / FSH-induced AEP activation (cleavage and phosphorylation) / FSH-induced C/EBPβ activation/expression: AKTi-1/2 10 μM; for FSH-induced SRPK2 phosphorylation/activation / FSH-induced AEP activation (cleavage and phosphorylation) / FSH-induced C/EBPβ activation/expression / FSH-induced AKT phosphorylation: PD98059 10 μM; for FSH-induced AEP activation (cleavage and phosphorylation) / FSH-induced C/EBPβ activation/expression / FSH-induced AKT phosphorylation: PTX 50 ng/ml. The text has this: Of note, MAPK-induced phosphorylation of residue T188 of C/EBPβ regulates its transcriptional activity (Ramji, D. P. & Foka, P. Biochem J 365, 561-575, (2002)). Likewise, AKT phosphorylates SRPK2, which, in turn, activates AEP by phosphorylating residue S266. […] Pertussis toxin inhibited FSH-induced C/EBPβ and AEP activation and AKT phosphorylation (FIG. 2E). […] In contrast, while the MEK1 inhibitor PD98059 blocked FSH-induced C/EBPβ, AEP and SRPK2 activation, AKT was unaffected (FIG. 2E).

Data on five compounds can be found in patent US20240254218A1 (ICAHN SCHOOL OF MEDICINE AT MOUNT SINAI, priority 2021, published 2024).

Regarding `COc1ccc(N=Nc2c(S(=O)(=O)[O-])cc3cc(Nc4nc(Cl)nc(N(CCC(N)=O)CCC(N)=O)n4)ccc3c2O)cc1.[Na+]` [7-[4-[Bis-(2-carbamoyl-ethyl)-amino]-6-chloro-(1,3,5)-triazin-2-ylamino)-4-hydroxy-3-(4-methoxy-phenylazo)-naphthalene]-2-sulfonic acid, sodium salt], the “mode of action on the FSH receptor (FSHR)” value in assay [1] is “selective, noncompetitive inhibitor”.
For the compound `O=c1[nH]c2ccccc2n1C1CCN(Cc2ccc(-c3nc4cc5nc[nH]c5cc4nc3-c3ccccc3)cc2)CC1` [AKTi-1/2], in assay [2], the “FSH-induced SRPK2 phosphorylation/activation” value was “attenuated”; the “FSH-induced AEP activation (cleavage and phosphorylation)” value (shortened to “FSH-induced AEP activation”) was “attenuated”; the “FSH-induced C/EBPβ activation/expression” value is recorded as “attenuated”.
With `COc1cccc(-c2cc(=O)c3ccccc3o2)c1N` [PD98059], in assay [2], the “FSH-induced SRPK2 phosphorylation/activation” value was “blocked”; the “FSH-induced AEP activation” value is given as “blocked”; the “FSH-induced C/EBPβ activation/expression” value was “blocked”; the “FSH-induced AKT phosphorylation” value was “unaffected”.
Regarding `Nc1ncnc2c1ncn2C1CCCO1` (stereo not drawn) [SQ22536], the “effect on any signaling molecule” value in assay [2] (SQ22536 100 μM) is “Absence of an effect”.
pertussis toxin: in assay [2], the “FSH-induced AEP activation” value was “inhibited”; the “FSH-induced C/EBPβ activation/expression” value is “inhibited”; the “FSH-induced AKT phosphorylation” value is listed as “inhibited”.
